{
  "source": "patent US5663335A",
  "about": "“Immunosuppressive compounds and methods” (priority 1996, dated 1997)",
  "system": "spleen cells (C57BL/6 responder, irradiated Balb/C stimulator)",
  "test": "Mixed lymphocyte reaction (MLR): inhibition of responder spleen cell proliferation",
  "type": "cell-based",
  "conditions": "Mus musculus, 96 h, four days incubation",
  "description": "Inhibition of cell proliferation in the mixed lymphocyte reaction (MLR) (Bradley, 1980; Mishell, 1980) is a measure of in vivo immunosuppression. Spleen cells from female C57BL/6 mice, the \"responder\" cells, were prepared and co-cultured alone or in the presence of varying concentrations of the test compounds, with irradiated spleen cells prepared from female Balb/C mice, the \"stimulator\" cells. Prior irradiation of the stimulator cells rendered them unable to proliferate. A sample of the responder cells was also irradiated for use as a control. The non-irradiated responder cells proliferate in the presence of the allogenic stimulator cells. After a 78-hour incubation, tritiated thymidine was added to the mixed cell cultures, and incorporation of the labeled nucleotide into DNA was measured as an index of cell proliferation. […]\nIn the assay, 4×10^5 cells of R were cocultured with 4×10^5 cells of Sx in 200 μl of medium in round bottom 96 well tissue culture plates. […] The spontaneous proliferation of R was also measured.\nThe culture plates were incubated at 37° C. in a 5% CO2 incubator for four days. […] Cells were then harvested and counted. […] Sample cpm was calculated as (R+Sx+sample)cpm-(R+Rx +sample)cpm; control cpm was calculated as (R+Sx)cpm-(R+Rx)cpm. Percent suppression of MLR activity was calculated as (1-sample cpm/control cpm)×100. […]",
  "note": "Where two headings read alike, the source gives them in different places.",
  "data": [
    {"smiles": "CC(C)[C@]12O[C@H]1[C@@H]1O[C@]13[C@]1(O[C@H]1C[C@H]1C4=C(CC[C@@]13C)C(=O)OC4)[C@@H]2O", "note": "[Triptolide, triptolide]", "values": [
      {"measurement": "IC50", "setting": "read-out: IC50 (concentration of sample producing 50% suppression of proliferation), MLR assay", "value": 0.9, "unit": "ng/mL"},
      {"measurement": "IC50", "setting": "read-out: IC50, MLR assay", "value": 2.5, "unit": "nM"}
    ]}
  ]
}
